Molecules are shown by their SMILES. Calls of active or inactive are those of the source. The calls are words filed in the database; no cut-off is given here.

The subject of assay [1] is MCF7. Put plainly: Activity at sigma 2 receptor in human MCF7 cells assessed as Ca2+ mobilization by fluorescence analysis. The assay is classed as cell-based.
Assay [2] relates to MCF7. Nature of the assay: Antiproliferative activity against human MCF7 cells transfected with human sigma1 receptor after 48 hrs by MTT assay. Conditions: for EC50: Homo sapiens, MCF7, 48 h. Further details: Activity: concentration or dose not given beside the values. In kind it is functional, cell-based. (Tetrazolium dyes change colour on reduction, which living cells bring about.)

Assay [3] concerns MCF7. Nature of the assay: Antiproliferative activity against human MCF7 cells after 48 hrs by MTT assay. The assay is classed as functional, cell-based. Conditions: for EC50: Homo sapiens, MCF7, 48 h.
A short description of assay [4]: Selectivity ratio of Ki for sigma 2 receptor in Wistar Hannover rat liver membrane to Ki for sigma 1 receptor in Dunkin guinea pig brain membrane without cerebellum. In kind it is cell membranes.
Assay [5] is described as follows: Displacement of [3H]DTG from sigma 2 receptor in Wistar Hannover rat liver membrane by competition binding assay. In kind it is cell membranes. (In general: Displacement assays read how much labelled ligand stays bound in the presence of the test substance.)
For assay [6], the target named is Sigma non-opioid intracellular receptor 1 (Cavia porcellus, UniProt Q60492). Nature of the assay: Displacement of [3H]pentazocine from sigma 1 receptor in Dunkin guinea pig brain membrane without cerebellum by competition binding assay. The assay is classed as cell membranes.
Assay [7] addresses Sigma non-opioid intracellular receptor 1 (Homo sapiens) (UniProt Q99720). Nature of the assay: Antagonist activity at human sigma 1 receptor transfected in human MCF7 cells assessed as decrease in bradykinin-triggered Ca2+ response at 1 uM pretreated for 10 mins measured every 5 secs by fluorescence analysis in presence of 1 uM sigma 1 receptor agonist, (+)-pentazocine. In kind it is cell-based.

For assay [8] the target is unchanged. Nature of the assay: Antagonist activity at human sigma 1 receptor transfected in human MCF7 cells assessed as decrease in bradykinin-triggered Ca2+ response at 1 uM pretreated for 10 mins measured every 5 secs by fluorescence analysis. The assay is classed as cell-based.
In assay [9] the test system is MCF7. Put plainly: Antagonist activity at sigma 2 receptor in human MCF7 cells assessed as effect on bradykinin-triggered Ca2+ response at 1 uM pretreated for 10 mins measured every 5 secs by fluorescence analysis. In kind it is cell-based.
For assay [10], the target named is Sigma non-opioid intracellular receptor 1 (Homo sapiens) (UniProt Q99720). Put plainly: Activity at human sigma 1 receptor transfected in human MCF7 cells assessed as Ca2+ mobilization by fluorescence analysis. The assay is classed as cell-based. Background: A change in cytosolic calcium serves as a functional read-out for many receptors and channels.
Assay [11] concerns MCF7. Nature of the assay: Antagonist activity at sigma 2 receptor in human MCF7 cells assessed as effect on bradykinin-triggered Ca2+ response at 10 uM pretreated for 10 mins measured every 5 secs by fluorescence analysis. The assay is classed as cell-based.
In assay [12] the test system is MCF7. Nature of the assay: Activity at sigma 2 receptor in human MCF7 cells assessed as bardykinin-triggered Ca2+ mobilization at 1 uM pretreated for 10 mins measured every 5 secs by fluorescence analysis. The assay is classed as cell-based.
Assay [13] deals with Sigma non-opioid intracellular receptor 1 (Homo sapiens) (UniProt Q99720). Put plainly: Agonist activity at human sigma 1 receptor transfected in human MCF7 cells assessed as increase in bradykinin-triggered Ca2+ response at 1 uM pretreated for 10 mins measured every 5 secs by fluorescence analysis. In kind it is cell-based.
The target is the same in assay [14]. Nature of the assay: Agonist activity at human sigma 1 receptor transfected in human MCF7 cells assessed as increase in bradykinin-triggered Ca2+ response at 1 uM pretreated for 10 mins measured every 5 secs by fluorescence analysis in presence of 1 uM sigma 1 receptor antagonist, BD1063. In kind it is cell-based.
In assay [15] the test system is MCF7. Nature of the assay: Agonist activity at sigma 2 receptor in human MCF7 cells assessed as decrease in bradykinin-induced Ca2+ response at 1 uM pretreated for 10 mins measured every 5 secs by fluorescence analysis in presence of 10 uM sigma 2 receptor antagonist, AC927. In kind it is cell-based.
Assay [16] relates to MCF7. Nature of the assay: Agonist activity at sigma 2 receptor in human MCF7 cells assessed as decrease in bradykinin-induced Ca2+ response at 1 uM pretreated for 10 mins measured every 5 secs by fluorescence analysis. The assay is classed as cell-based.

Chain of Sigma non-opioid intracellular receptor 1 (Homo sapiens) (Q99720 whole entry): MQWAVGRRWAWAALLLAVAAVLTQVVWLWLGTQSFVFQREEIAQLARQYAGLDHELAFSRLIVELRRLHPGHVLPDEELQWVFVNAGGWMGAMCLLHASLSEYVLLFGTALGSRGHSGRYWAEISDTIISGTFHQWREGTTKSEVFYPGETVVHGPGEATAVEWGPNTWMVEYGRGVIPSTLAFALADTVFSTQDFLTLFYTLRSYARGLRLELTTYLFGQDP
Chain of Sigma non-opioid intracellular receptor 1 (Q60492 whole entry): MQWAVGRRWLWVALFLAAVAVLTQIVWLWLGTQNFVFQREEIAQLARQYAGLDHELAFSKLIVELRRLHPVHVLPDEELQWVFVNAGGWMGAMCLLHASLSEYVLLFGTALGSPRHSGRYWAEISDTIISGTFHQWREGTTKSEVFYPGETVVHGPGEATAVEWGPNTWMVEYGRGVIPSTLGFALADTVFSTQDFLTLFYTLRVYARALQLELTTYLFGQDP

Usually EC50 stands for the midpoint of the concentration-response curve. The Ki is a dissociation constant, usually derived from enzyme kinetics or from competition with a known ligand. Turning to `COc1ccc2c(c1)CCCC2CCCCN1[C@H](C)CCC[C@@H]1C` (stereo partly drawn), the outcome (in the assay on MCF7 [1]; in assay [10]) was inactive. In the assay with MCF7 [2], this compound came in with an Activity of 14%. Also, the values for the EC50 in the assay with MCF7 [2] and with MCF7 [3] were 100 µM and more than 100 µM, respectively. Also, in assay [4], the Ratio Ki stood at 1.3. The Ki in assay [5] was found to be 0.0111 µM; in assay [6] it was 0.00867 µM. The inhibition entry in assay [7] was “inactive”. For the same compound, in [8], the inhibition entry is “Active”. In the assay on MCF7 [9], the outcome was Active.

Turning to `COc1cccc2c1CCCC2CCCN1CCN(C2CCCCC2)CC1` (stereo not drawn), the values for the EC50 in the assay with MCF7 [2] and with MCF7 [3] were 31.2 µM and 27.4 µM, respectively.

Take `c1ccc(CCN2CCCCC2)cc1`: the EC50 in the assay with MCF7 [2] and in the assay on MCF7 [3] was more than 100 µM in each case. The result in the assay on MCF7 [11] was Active.

In the assay on MCF7 [2], `COc1ccc2c(CCCCN3CCCCC3(C)C)cccc2c1` came in with an Activity of 18% and an EC50 of 100 µM. In the assay on MCF7 [3], this compound returned an Activity of 19% and an EC50 of 100 µM. Further, the Ratio Ki in assay [4] amounted to 1.3. Further, the affinity in [5], expressed as Ki, was 0.0286 µM.

On to `COc1ccc2c(c1)CCCC2CCCN1CCCCC1(C)C` (stereo not drawn), for which the EC50 in the assay with MCF7 [2] and with MCF7 [3] was more than 100 µM in each case. The Ratio Ki in [4] came out at 0.6. The same compound returned a Ki in assay [5] of 0.115 µM.

As to `COc1ccc2c(CCCCN3C(C)(C)CCCC3(C)C)cccc2c1`, the EC50 with MCF7 [2] and in the assay on MCF7 [3] was more than 100 µM in each case. The Ratio Ki in assay [4] amounted to 1. Moreover, the values for the Ki in [5] and in assay [6] were 0.0907 µM and 0.0886 µM, respectively.

For `CC(C)=CCN1CC[C@]2(C)c3cc(O)ccc3C[C@H]1[C@H]2C` [(+)-PENTAZOCINE], the EC50 in the assay on MCF7 [2] and in the assay with MCF7 [3] was more than 100 µM in each case. Further, the result in the assay with MCF7 [12] was inactive.

Turning to `COc1ccc2c(c1)CCCC2CCCN1[C@H](C)CCC[C@@H]1C` (stereo partly drawn), the outcome (in the assay with MCF7 [1]; in [10]) was inactive. For the same compound, the EC50 in the assay with MCF7 [2] and with MCF7 [3] was more than 100 µM in each case. The Ratio Ki in [4] worked out at 0.8. Moreover, the Ki amounted to 0.0909 µM in [5] and 0.11 µM in [6]. Also, the result (in [13]; in the assay on MCF7 [9]) was Active.

Consider `COc1ccc2c(c1)CCCC2CCCN1C(C)(C)CCCC1(C)C` (stereo not drawn), for which the EC50 with MCF7 [2] and in the assay on MCF7 [3] was more than 100 µM each time. The Ratio Ki in [4] is 1.7. Moreover, the results for the Ki in [5] and in assay [6] were 0.641 µM and 0.373 µM, respectively.

With `COc1ccc2c(CCCN3[C@H](C)CCC[C@@H]3C)cccc2c1`, the outcome (in the assay with MCF7 [1]; in assay [14]; in [10]) was inactive. Besides, the EC50 in the assay on MCF7 [2] and in the assay with MCF7 [3] was more than 100 µM each time. In addition, the Ratio Ki in [4] was 6.1. The Ki was 0.0454 µM in assay [5] and 0.00743 µM in assay [6]. In addition, the outcome (in assay [13]; with MCF7 [9]) was Active.

For `CN1CCN(CCc2ccc(Cl)c(Cl)c2)CC1`, the EC50 in the assay with MCF7 [2] was 70 µM; in the assay on MCF7 [3], more than 100 µM.

`Cc1ccccc1NC(=N)Nc1ccccc1C` [DITOLYLGUANIDINE]: the affinity in assay [5] corresponds to a Ki of 0.0302 µM.

Consider `COc1ccc2c(CCCCN3[C@H](C)CCC[C@@H]3C)cccc2c1.Cl`, for which the outcome (with MCF7 [1]; in assay [10]) was inactive. In addition, the Activity in the assay with MCF7 [2] is 12%; in the assay with MCF7 [3], 14%. The EC50 in the assay on MCF7 [2] and in the assay with MCF7 [3] was 100 µM throughout. In assay [4], the Ratio Ki is 0.7. The Ki came out at 0.0138 µM in assay [5] and 0.0185 µM in assay [6]. Moreover, the inhibition result with MCF7 [15] was “inactive”. The outcome in assay [13] was Active. In addition, in the assay with MCF7 [16], the inhibition result is “Active”.

In the assay with MCF7 [2], `COc1ccc2c(c1)CCCC2CCCCN1CCCCC1(C)C` (stereo not drawn) gave an Activity of 14% and an EC50 of 100 µM. In the assay on MCF7 [3], this compound returned an Activity of 20% and an EC50 of 100 µM. In addition, the Ratio Ki in assay [4] is 9. In [5], the Ki turned out to be 0.0295 µM.

With `COc1ccc2c(CCCN3C(C)(C)CCCC3(C)C)cccc2c1`, the EC50 with MCF7 [2] and with MCF7 [3] was more than 100 µM each time. Besides, the Ratio Ki in assay [4] came out at 2.1. For the same compound, the Ki in [5] was found to be 0.495 µM; in assay [6], 0.236 µM.

Regarding `COc1ccc2c(c1)CCCC2CCCCN1C(C)(C)CCCC1(C)C` (stereo not drawn), the EC50 in the assay on MCF7 [2] and with MCF7 [3] was more than 100 µM throughout. For the same compound, the Ratio Ki in assay [4] came out at 1.9. Also, the figures for the Ki in assay [5] and in [6] were 0.0698 µM and 0.0359 µM, respectively.

As for `COc1ccc2c(CCCN3CCCCC3(C)C)cccc2c1`, the EC50 in the assay with MCF7 [2] and in the assay with MCF7 [3] was more than 100 µM in each case. In addition, the Ratio Ki in assay [4] is 0.09. In addition, affinity in assay [5] was put at a Ki of 0.094 µM.

Source of the values: ChEMBL document CHEMBL2346531, “Investigation of σ receptors agonist/antagonist activity through N-(6-methoxytetralin-1-yl)- and N-(6-methoxynaphthalen-1-yl)alkyl derivatives of polymethylpiperidines” (Bioorg Med Chem, 2013).
